Laboratory results taken from publication PMC5914092, “Evaluation of Aldose Reductase, Protein Glycation, and Antioxidant Inhibitory Activities of Bioactive Flavonoids in Matricaria recutita L. and Their Structure-Activity Relationship” (Journal of Diabetes Research, 2018).
“Also recorded” adds a separate entry of the source. Like-named read-outs stand apart in the source and are kept apart here. Marks after values point to notes of the source that are not given here.

Tests used:
[1] = system: advanced glycation end products (AGEs); assay: Methylglyoxal-bovine serum albumin assay investigating AGE formation; type: biochemical; settings: methylglyoxal-BSA, 37°C 24 h, mean ± RSD
Experimental: Bovine serum albumin (50 mg/mL) was incubated with methylglyoxal (100 mM) in sodium phosphate buffer (0.1 M, pH 7.4) in the presence of various concentrations of the compounds (including a control) at 37°C for 24 h. Then the fluorescent intensity was measured at an excitation wavelength of 355 nm and an emission wavelength of 460 nm with a luminescence spectrometer LS50B (PerkinElmer Ltd., Buckinghamshire, England). […] All reagents and samples were sterilized by filtration through […] membrane filters.

[2] = system: sorbitol accumulation in rat lens; assay: Lens culture and intracellular sorbitol measurement (ex vivo, high glucose); type: cell-based; settings: for Sorbitol content (mg)/lens wet weight (g): rat lens cultured 6 d in medium with 30 mM glucose, control by G 1.47 ± 0.02; for inhibition at 5 µg/mL: read-out: Inhibition (%) of sorbitol accumulation in rat lens
Experimental: Lens isolated from 10-week old Sprague-Dawley rats were cultured for 6 d in TC-199 medium containing 15% fetal bovine serum, 100 units/mL penicillin, and 0.1 mg/mL streptomycin, under sterile conditions and an atmosphere of 5% CO2 and 95% air at 37°C. Samples were dissolved in DMSO. The lens were divided into three groups (each group n = 3) and cultured in medium containing 30 mM glucose and RLAR-active compounds. Each lens was placed in a well containing 2.0 mL medium. Sorbitol was identified by HPLC after its derivatization by reaction with benzoic acid to form a fluorescent compound [25].

[3] = DPPH free radical scavenging capacity; settings: concentrations 15, 30, 75 μg/mL, mean ± RSD
Experimental: DPPH, a stable free radical, was used to determine the free radical-scavenging activity of the extracts. Briefly, a 0.32 mM DPPH solution in MeOH were prepared, and 180 μL of this solution was mixed with 30 μL of each sample at concentrations of 0.05–1.0 mg/mL in DMSO. After 20 min of incubation in the dark, the decrease in the absorbance of the solution was measured at 570 nm on a microplate reader (EL800 Universal Microplate reader, Bio-Tek instruments, Winooski, VT, USA). DPPH radical-scavenging activity was expressed as the percentage inhibition (%) of DPPH in this assay system and was calculated as (1 − B/A) × 100, where A and B are the activities of DPPH without and with the test material, respectively.

[4] = target: T1, rat lens aldose reductase (RLAR) (Rattus norvegicus, UniProt P07943); settings: cited from earlier work; for IC50: compounds isolated from other plant sources, read-out: RLAR inhibitory activity (reported data)
T1 construct: The supernatant was collected and used as RLAR; from tissue; host or cells: lens of Sprague-Dawley rats (supernatant of the homogenate after 10,000g)

[5] = target: T1, rat lens aldose reductase (RLAR); assay: Determination of RLAR inhibition (NADPH absorbance decrease at 340 nm, DL-glyceraldehyde substrate); type: biochemical; settings: crude RLAR homogenate; inhibitor concentrations 1, 5, 10 μg/mL; mean ± RSD; NI: no inhibition
Experimental: Crude RLAR was prepared as follows: lenses were removed from Sprague-Dawley rats (weighing 250–280 g) and frozen at −70°C until use. Noncataractous transparent lenses were pooled and a homogenate was prepared in 0.1 M phosphate buffered saline (pH 6.2). The RLAR homogenate was then centrifuged at 10,000g for 20 min at 4°C in a refrigerated centrifuge. The supernatant was collected and used as RLAR [22].
A total of 531 μL of 0.1 M potassium buffer (pH 7.0), 90 μL of NADPH solution (1.6 mM in potassium buffer), 90 μL of RLAR homogenate (6.5 U/mg), 90 μL of ammonium sulfate solution (4 M in potassium buffer), and 90 μL of DL-glyceraldehyde (25 mM in potassium buffer) were mixed with 9 μL of different concentrations of samples (1–0.1 mg/mL in DMSO, less than 1% in total mixture) in a cuvette, and the activity of RLAR was assessed spectrophotometrically by measuring the decrease in NADPH absorbance at 340 nm for 3 minutes using a spectrophotometer (SECOMAM, Ales Cedex, France).

[6] = sample 5 μg/mL, mean ± SD (n = 3)
[7] = rat lens cultured in 30 mM glucose, sample 5 μg/mL, mean ± SD (n = 3)
[8] = concentrations 10, 25, 50 μg/mL, NI: no inhibition

| SMILES | Sorbitol content (mg)/lens wet weight (g) [2, 6] | inhibition at 5 µg/mL [2, 7] | IC50 [1, 8] | other results |
| --- | --- | --- | --- | --- |
| N=C(N)NN [Aminoguanidine, aminoguanidine, reference compound] | – | – | – | IC50 AGEs ([1]; concentrations 20, 100, 200 μg/mL): 109.10 ± 3.47^a μg/mL |
| O=c1cc(-c2ccc(O)cc2)oc2cc(O[C@@H]3O[C@H](CO)[C@@H](O)[C@H](O)[C@H]3O)cc(O)c12 [Compound 1, apigenin-7-O-β-D-glucoside] | 0.72 ± 0.01^c mg/g | 51 ± 1.68% | > 97 µM | IC50 ([3]; NI: no inhibition): > 250 µM; IC50 [4]: 23 µM |
| O=c1cc(-c2ccc(O)c(O)c2)oc2cc(O[C@@H]3O[C@H](CO)[C@@H](O)[C@H](O)[C@H]3O)cc(O)c12 [Compound 2, luteolin-7-O-β-D-glucoside] | 0.07 ± 0.01^a mg/g | 95.2 ± 8.18% | > 97 µM | IC50 [4]: 0.99 µM |
| COc1cc2oc(-c3ccc(O)cc3)c(OC)c(=O)c2c(O)c1OC [Compound 3, penduletin] | – | – | > 97 µM | IC50 ([3]; NI: no inhibition): > 208 µM; IC50 DPPH ([3]; NI: no inhibition): almost no effect; IC50 AGEs [1, 8]: did not show inhibitory activities; IC50 [5]: > 28 µM; IC50 RLAR [5]: inactive; also recorded: did not show inhibitory activities |
| O=C(O)[C@H]1O[C@@H](Oc2cc(O)c3c(=O)cc(-c4ccc(O)cc4)oc3c2)[C@H](O)[C@@H](O)[C@@H]1O [Compound 5, apigenin-7-O-β-D-glucuronide] | 0.29 ± 0.01^b mg/g | 80.3 ± 2.78% | > 97 µM | – |
| O=C(O)[C@H]1O[C@@H](Oc2cc(O)c3c(=O)cc(-c4ccc(O)c(O)c4)oc3c2)[C@H](O)[C@@H](O)[C@@H]1O [Compound 6, luteolin-7-O-β-D-glucuronide] | 0.12 ± 0.01^a mg/g | 91.8 ± 6.74% | – | – |
| O=C(C=Cc1ccc(O)c(O)c1)OC1CC(O)(C(=O)O)CC(OC(=O)C=Cc2ccc(O)c(O)c2)C1O (stereo not drawn) [Compound 7, 3,5-O-di-caffeoylquinic acid] | 0.20 ± 0.01^a mg/g | – | > 97 µM | inhibition at 5 µg/mL ([2]; Rattus norvegicus): 86.4 ± 4.28% |
| O=c1cc(-c2ccc(O)cc2)oc2cc(O)c(O)c(O)c12 [Compound 8, 6-hydroxyapigenin] | – | – | > 97 µM | IC50 ([3]; NI: no inhibition): > 208 µM; IC50 DPPH ([3]; NI: no inhibition): almost no effect; IC50 AGEs [1, 8]: did not show inhibitory activities; IC50 [5]: > 28 µM; IC50 RLAR [5]: inactive; also recorded: did not show inhibitory activities |
| O=c1cc(-c2ccc(O)cc2)oc2cc(O)cc(O)c12 [Compound 9, apigenin] | 0.19 ± 0.01^a mg/g | 87.1 ± 4.48% | > 97 µM | – |
| O=c1cc(-c2ccc(O)c(O)c2)oc2cc(O)cc(O)c12 [Compound 10, luteolin] | 0.12 ± 0.01^a mg/g | 91.8 ± 6.87% | – | – |
| O=C1O[C@H]([C@@H](O)CO)C(O)=C1O [L-Ascorbic acid, reference compound] | – | – | – | IC50 DPPH ([3]; three independent experiments in duplicate): 6.60 ± 0.33^a μg/mL |
| O=c1c(O)c(-c2ccc(O)c(O)c2)oc2cc(O)cc(O)c12 [Quercetin, quercetin, reference compound] | 0.21 ± 0.01^a mg/g | 85.7 ± 3.23% | – | – |
| O=c1cc(-c2ccc(O)c(O)c2)oc2cc(O)cc(O[C@@H]3O[C@H](CO)[C@@H](O)[C@H](O)[C@H]3O)c12 [luteolin-5-O-β-D-glucopyranoside, reference compound] | – | – | – | Inhibitory activity on RLAR relative to its precursor (luteolin) ([4]; isolated from Cirsium maackii): ~1.58 times |
